# Experimental data published in US20070197590A1, “SUBSTITUTED DIPIPERIDINE CCR2 ANTAGONISTS” (priority 2006, published 2007).
# Target: T1, CCR2 (Homo sapiens, UniProt P41597)
# T1 construct: host or cells: THP-1 cells
# T1 sequence (P41597 1-360 isoform P41597-2): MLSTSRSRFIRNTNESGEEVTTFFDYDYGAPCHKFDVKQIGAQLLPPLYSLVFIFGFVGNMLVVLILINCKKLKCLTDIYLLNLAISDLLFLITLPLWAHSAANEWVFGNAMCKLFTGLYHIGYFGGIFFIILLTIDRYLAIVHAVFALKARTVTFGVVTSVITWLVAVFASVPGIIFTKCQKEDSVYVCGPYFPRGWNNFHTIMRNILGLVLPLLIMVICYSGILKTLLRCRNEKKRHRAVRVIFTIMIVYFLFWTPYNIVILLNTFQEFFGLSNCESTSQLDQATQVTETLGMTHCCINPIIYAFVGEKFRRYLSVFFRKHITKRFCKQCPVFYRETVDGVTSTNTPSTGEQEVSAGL
# Assay: MCP-1 Receptor Binding Assay in THP-1 Cells
# Conditions: THP-1 cells, 0.5 nM 125I labeled MCP-1, 2 hours at 30° C.; read-out: Inhibition of MCP-1 Binding IC50
# Experimental: THP-1 cells were obtained from American Type Culture Collection (Manassas, Va., USA). The THP-1 cells were grown in RPMI-1640 supplemented with 10% fetal bovine serum in a humidified 5% CO2 atmosphere at 37° C. The cell density was maintained […].
# THP-1 cells were incubated with 0.5 nM ^125, labeled MCP-1 (Perkin-Elmer Life Sciences, Inc. Boston, Mass.) in the presence of varying concentrations of either unlabeled MCP-1 (R & D Systems, Minneapolis, Minn.) or test compound for 2 hours at 30° C. in a 96 well plate. Cells were then harvested onto a filter plate, dried, and 20 μL of Microscint 20 was added to each well. Plates were counted in a TopCount NXT, Microplate Scintillation & Luminescence Counter (Perkin-Elmer Life Sciences, Inc. Boston, Mass.). Blank values (buffer only) were subtracted from all values and drug treated values were compared to vehicle treated values. 1 μM cold MCP-1 was used for nonspecific binding.
# Table 1 lists IC50 values for inhibition of MCP-1 binding to CCR2 obtained for test compounds of the invention.
row,SMILES,IC50 [nM]
1,"O=C(C(=O)N1CCC(c2ccc(Cl)cc2)CC1)C1CCN(C(=O)C=Cc2ccc(Cl)c(Cl)c2)CC1 [Compound 2, 1-[4-(4-chloro-phenyl)-piperidin-1-yl]-2-{1-[3-(3,4-dichloro-phenyl)-acryloyl]-piperidin-4-yl}-ethane-1,2-dione]",4400
2,O=C(/C=C/c1ccc(Cl)c(Cl)c1)N1CCC(C(O)C(=O)N2CCC(c3ccc(Cl)cc3)CC2)CC1 (stereo not drawn) [Compound 3],3400
3,"O=C(c1cc(F)c(F)c(F)c1)N1CCC(C(O)CN2CCC(c3c[nH]c4ccccc34)CC2)CC1 (stereo not drawn) [Compound 8, (4-{1-hydroxy-2-[4-(1H-indol-3-yl)-piperidin-1-yl]-ethyl}-piperidin-1-yl)-(3,4,5-trifluoro-phenyl)-methanone]",6400
4,"O=C(CN1CCC(c2c[nH]c3ncccc23)CC1)C1CCN(C(=O)/C=C/c2cc(F)c(F)c(F)c2)CC1 [Compound 17, 1-(4-{2-[4-(1H-pyrrolo[2,3-b]pyridin-3-yl)-piperidin-1-yl]-acetyl}-piperidin-1-yl)-3-(3,4,5-trifluoro-phenyl)-propenone]",9400
5,Cc1cccc(/C=C/C(=O)N2CCC(C(O)CN3CCC(c4cc[nH]n4)CC3)CC2)c1 (stereo not drawn) [Compound 33],1400
6,O=C(/C=C/c1cc(F)c(F)c(F)c1)N1CCC(C(O)CN2CCC(c3cc[nH]n3)CC2)CC1 (stereo not drawn) [Compound 35],1200
7,"O=C(Nc1ccc(Cl)c(Cl)c1)N1CCC(C(O)CN2CCC(c3cc[nH]n3)CC2)CC1 (stereo not drawn) [Compound 36, 4-{1-hydroxy-2-[4-(1H-pyrazol-3-yl)-piperidin-1-yl]-ethyl}-piperidine-1-carboxylic acid (3,4-dichloro-phenyl)-amide]",1100
8,"O=C(Nc1ccc(F)c(F)c1)N1CCC(C(O)CN2CCC(c3cc[nH]n3)CC2)CC1 (stereo not drawn) [Compound 37, 4-{1-hydroxy-2-[4-(1H-pyrazol-3-yl)-piperidin-1-yl]-ethyl}-piperidine-1-carboxylic acid (3,4-difluoro-phenyl)-amide]",8600
9,"CCOC(=O)C(CN1CCC(c2ccc(OC)cc2)CC1)C1CCN(C(=O)C=Cc2cc(F)c(F)c(F)c2)CC1 (stereo not drawn) [Compound 38, 3-[4-(4-methoxy-phenyl)-piperidin-1-yl]-2-{1-[3-(3,4,5-trifluoro-phenyl)-acryloyl]-piperidin-4-yl}-propionic acid ethyl ester]",4700
10,O=C(/C=C/c1cc(F)cc(F)c1)N1CCC(C(O)CN2CCC(c3nc4ccccc4o3)CC2)CC1 (stereo not drawn) [Compound 46],2100
11,Cc1cccc(/C=C/C(=O)N2CCC(C(O)CN3CCC(c4nc5ccccc5o4)CC3)CC2)c1 (stereo not drawn) [Compound 47],3900
12,O=C(/C=C/c1cc(F)cc(F)c1)N1CCC(CC(CO)N2CCC(c3c[nH]c4ccccc34)CC2)CC1 (stereo not drawn) [Compound 54],5600
13,O=C(/C=C/c1cc(F)c(F)c(F)c1)N1CCC(CC(CO)N2CCC(c3c[nH]c4ccccc34)CC2)CC1 (stereo not drawn) [Compound 55],3500
14,O=C(/C=C/c1ccc(Cl)c(Cl)c1)N1CCC(CC(CO)N2CCC(c3c[nH]c4ccccc34)CC2)CC1 (stereo not drawn) [Compound 56],5700
15,Cc1cccc(/C=C/C(=O)N2CCC(CC(CO)N3CCC(c4c[nH]c5ccccc45)CC3)CC2)c1 (stereo not drawn) [Compound 57],2600
16,"OCC(CC1CCN(C(=S)Nc2cccc(Br)c2)CC1)N1CCC(c2c[nH]c3ccccc23)CC1 (stereo not drawn) [Compound 59, 4-{3-hydroxy-2-[4-(1H-indol-3-yl)-piperidin-1-yl]-propyl}-piperidine-1-carbothioic acid (3-bromo-phenyl)-amide]",6100
17,"COc1ccc(C2CCN(CC(=O)C3CCN(C(=O)/C=C/c4cc(F)c(F)c(F)c4)CC3)CC2)cc1 [Compound 64, 1-(4-{2-[4-(4-methoxy-phenyl)-piperidin-1-yl]-acetyl}-piperidin-1-yl)-3-(3,4,5-trifluoro-phenyl)-propenone]",1300
18,"COc1ccc(C2CCN(CC(NC(=O)N(C)C)C3CCN(C(=O)C=Cc4cc(F)c(F)c(F)c4)CC3)CC2)cc1 (stereo not drawn) [Compound 68, 3-(2-[4-(4-methoxy-phenyl)-piperidin-1-yl]-1-{1-[3-(3,4,5-trifluoro-phenyl)-acryloyl]-piperidin-4-yl}-ethyl)-1,1-dimethyl-urea]",2700
19,"O=C(OCc1ccccc1)N1CCC(O)(C(O)CN2CCC(c3c[nH]c4ccccc34)CC2)CC1 (stereo not drawn) [Compound 69, 4-hydroxy-4-{1-hydroxy-2-[4-(1H-indol-3-yl)-piperidin-1-yl]-ethyl}-piperidine-1-carboxylic acid benzyl ester]",950
20,O=C(/C=C/c1cc(C(F)(F)F)cc(C(F)(F)F)c1)N1CCC(O)(C(O)CN2CCC(c3c[nH]c4ccccc34)CC2)CC1 (stereo not drawn) [Compound 72],700
21,"OC(CN1CCC(c2c[nH]c3ccccc23)CC1)C1(O)CCN(C(=S)Nc2cc(Cl)cc(Cl)c2)CC1 (stereo not drawn) [Compound 83, 4-hydroxy-4-{1-hydroxy-2-[4-(1H-indol-3-yl)-piperidin-1-yl]-ethyl}-piperidine-1-carbothioic acid (3,5-dichloro-phenyl)-amide]",860
22,"COc1ccc(C2CCN(CC(O)C3CCN(C(=O)Nc4cc(F)cc(C(F)(F)F)c4)CC3)CC2)cc1 (stereo not drawn) [Compound 91, 4-{1-hydroxy-2-[4-(4-methoxy-phenyl)-piperidin-1-yl]-ethyl}-piperidine-1-carboxylic acid (3-fluoro-5-trifluoromethyl-phenyl)-amide]",810
23,COc1ccc(C2CCN(CC(O)C3(O)CCN(C(=O)/C=C/c4ccc(Cl)cc4)CC3)CC2)cc1 (stereo not drawn) [Compound 92],480

# Same assay, conditions: test concentration of 25 μM; given where an IC50 value was not obtained; read-out: Inhibition of MCP-1 Binding, percent inhibition
row,SMILES,inhibition at 25 µM [%]
1,"COc1ccc(C2CCN(CC(C(=O)O)C3CCN(C(=O)C=Cc4cc(F)c(F)c(F)c4)CC3)CC2)cc1 (stereo not drawn) [Compound 39, 3-[4-(4-methoxy-phenyl)-piperidin-1-yl]-2-{1-[3-(3,4,5-trifluoro-phenyl)-acryloyl]-piperidin-4-yl}-propionic acid]",52
2,"CCOC(=O)C(CC1CCN(C(=O)C=Cc2cccc(C)c2)CC1)N1CCC(c2c[nH]c3ccccc23)CC1 (stereo not drawn) [Compound 48, 2-[4-(1H-indol-3-yl)-piperidin-1-yl]-3-[1-(3-m-tolyl-acryloyl)-piperidin-4-yl]-propionic acid ethyl ester]",48
3,"CCOC(=O)C(CC1CCN(C(=O)C=Cc2ccc(Cl)c(Cl)c2)CC1)N1CCC(c2c[nH]c3ccccc23)CC1 (stereo not drawn) [Compound 49, 3-{1-[3-(3,4-dichloro-phenyl)-acryloyl]-piperidin-4-yl}-2-[4-(1H-indol-3-yl)-piperidin-1-yl]-propionic acid ethyl ester]",40
4,"CCOC(=O)C(CC1CCN(C(=O)C=Cc2cc(F)c(F)c(F)c2)CC1)N1CCC(c2c[nH]c3ccccc23)CC1 (stereo not drawn) [Compound 50, 2-[4-(1H-indol-3-yl)-piperidin-1-yl]-3-{1-[3-(3,4,5-trifluoro-phenyl)-acryloyl]-piperidin-4-yl}-propionic acid ethyl ester]",44
5,"CCOC(=O)C(CC1CCN(C(=O)C=Cc2cc(F)cc(F)c2)CC1)N1CCC(c2c[nH]c3ccccc23)CC1 (stereo not drawn) [Compound 51, 3-{1-[3-(3,5-difluoro-phenyl)-acryloyl]-piperidin-4-yl}-2-[4-(1H-indol-3-yl)-piperidin-1-yl]-propionic acid ethyl ester]",48
6,"CCOC(=O)C(CC1CCN(C(=O)Nc2ccc(Cl)c(Cl)c2)CC1)N1CCC(c2c[nH]c3ccccc23)CC1 (stereo not drawn) [Compound 52, 3-[1-(3,4-dichloro-phenylcarbamoyl)-piperidin-4-yl]-2-[4-(1H-indol-3-yl)-piperidin-1-yl]-propionic acid ethyl ester]",53
7,"Cc1cccc(C=CC(=O)N2CCC(CC(C(=O)O)N3CCC(c4c[nH]c5ccccc45)CC3)CC2)c1 (stereo not drawn) [Compound 53, 2-[4-(1H-indol-3-yl)-piperidin-1-yl]-3-[1-(3-m-tolyl-acryloyl)-piperidin-4-yl]-propionic acid]",48
8,"O=C(O)C(CC1CCN(C(=O)Nc2ccc(Cl)c(Cl)c2)CC1)N1CCC(c2c[nH]c3ccccc23)CC1 (stereo not drawn) [Compound 62, 3-[1-(3,4-dichloro-phenylcarbamoyl)-piperidin-4-yl]-2-[4-(1H-indol-3-yl)-piperidin-1-yl]-propionic acid]",55
9,"CC(C)(C)OC(=O)N1CCC(C(O)CN2CCC(c3c[nH]c4ccc(NS(C)(=O)=O)cc34)CC2)CC1 (stereo not drawn) [Compound 63, 4-{1-hydroxy-2-[4-(5-methanesulfonylamino-1H-indol-3-yl)-piperidin-1-yl]-ethyl}-piperidine-1-carboxylic acid tert-butyl ester]",46
10,"COc1ccc(C2CCN(CC(O)C3CCN(C(=O)Nc4cc(Cl)c(Cl)cc4F)CC3)CC2)cc1 (stereo not drawn) [Compound 90, 4-{1-hydroxy-2-[4-(4-methoxy-phenyl)-piperidin-1-yl]-ethyl}-piperidine-1-carboxylic acid (4,5-dichloro-2-fluoro-phenyl)-amide]",87
